Measurements published in PubChem BioAssay AID1259411 (Chemical Carcinogenesis Research Information System (CCRIS), 2018).
The source made the active and inactive calls. The rule behind the calls is not given here.

System: rodent carcinogenicity bioassays, tumor incidence
Test: CCRIS carcinogenicity studies
How it was run: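 NCI-built, expert-reviewed records of carcinogenicity and related test outcomes (mutagenicity, tumor promotion/inhibition) compiled from published and report sources, historical span 1985-2011, not updated.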

Cc1c2ccccc2c(C)c2c1ccc1ccccc12
carcinogen call (Species: MOUSE, Strain/Sex: SWISS/MALE,FEMALE, Route: SUBCUTANEOUS, Dose: 30-40 UG IN 0.02 ML OF 1% AQ GEL, Tumor Site: Type of Lesion: LUNG, LYMPHATIC SYSTEM: MALIGNANT LYMPHOMA): active; positive
carcinogen call (Species: RAT, Strain/Sex: ALBINO/MALE,FEMALE, Route: SUBCUTANEOUS, Dose: 5 MG IN 0.5 ML OLIVE OIL ONCE, Tumor Site: Type of Lesion: INJECTION SITE: RHABDOMYOSARCOMA): active; positive
carcinogen call (Species: RAT, Strain/Sex: BIRMINGHAM/ MALE, FEMALE, Route: DERMAL, Dose: 0.5, 1.6% SOLN IN OLIVE OIL ONCE EVERY 2 WK, Tumor Site: Type of Lesion: INTEGUMENTARY SYSTEM (SKIN): SQUAMOUS PAPILLOMA, KERATOACANTHOMA, SQUAMOUS CELL CARCINOMA, MAMMARY GLAND): active; positive
carcinogen call (Species: RAT, Strain/Sex: F344/FEMALE, 3 WKS OF AGE, Route: GAVAGE, Dose: 50 MG/KG ONCE (STUDY DURATION: 36 WKS), Tumor Site: Type of Lesion: MAMMARY GLAND: CARCINOMA): 20% tumor incidence; 0.23 carcinomas/rat; immature rats less susceptible
carcinogen call (Species: RAT, Strain/Sex: F344/FEMALE, 8 WKS OF AGE, Route: GAVAGE, Dose: 50 MG/KG ONCE (STUDY DURATION: 36 WKS), Tumor Site: Type of Lesion: MAMMARY GLAND: CARCINOMA): 69% tumor incidence; 1.27 carcinomas/rat; mature rats more susceptible
carcinogen call (Species: RAT, Strain/Sex: OUTBRED/ MALE, FEMALE, Route: DERMAL, Dose: 0.5, 1.6% SOLN IN OLIVE OIL ONCE EVERY 2 WK, Tumor Site: Type of Lesion: INTEGUMENTARY SYSTEM (SKIN): SQUAMOUS PAPILLOMA, KERATOACANTHOMA, SQUAMOUS CELL CARCINOMA, MAMMARY GLAND): active; positive
carcinogen call (Species: RAT, Strain/Sex: SPRAGUE-DAWLEY/FEMALE, Route: GAVAGE, Dose: 10 MG IN 0.5 ML SESAME OIL ONCE, Tumor Site: Type of Lesion: MAMMARY GLAND): active; positive
carcinogen call (Species: RAT, Strain/Sex: SPRAGUE-DAWLEY/FEMALE, Route: GAVAGE, Dose: 20 MG IN 1 ML SESAME OIL ONCE, Tumor Site: Type of Lesion: MAMMARY GLAND: FIBROADENOMA, CARCINOMA): active; positive
carcinogen call (Species: RAT, Strain/Sex: SPRAGUE-DAWLEY/FEMALE, Route: INJECTION, Dose: 0, 0.25, 1 UMOL PER MAMMARY GLAND (STUDY DURATION: 24 WK), Dose: 0, 0.25, 1 UMOL PER MAMMARY GLAND (STUDY DURATION: 24 WK), Tumor Site: Type of Lesion: MAMMARY GLAND: TUMOR): active; positive
carcinogen call (Species: RAT, Strain/Sex: SPRAGUE-DAWLEY/FEMALE, Route: INTRAVENOUS, Dose: 5 MG IN 1 ML LIPID EMULSION ONCE, Tumor Site: Type of Lesion: MAMMARY GLAND): active; positive
carcinogen call (Species: RAT, Strain/Sex: SPRAGUE-DAWLEY/FEMALE, Route: ORAL, Dose: 10 MG IN SESAME OIL 3 TIMES AT 14 D INTERVALS, Tumor Site: Type of Lesion: MAMMARY GLAND: ADENOMA, ADENOCARCINOMA): active; positive
carcinogen call (Species: RAT, Strain/Sex: SPRAGUE-DAWLEY/FEMALE, Route: ORAL, Dose: 20 MG IN SESAME OIL ONCE, Tumor Site: Type of Lesion: MAMMARY GLAND: ADENOMA, FIBROADENOMA, CARCINOMA, ADENOCARCINOMA): active; positive
carcinogen call (Species: RAT, Strain/Sex: SPRAGUE-DAWLEY/FEMALE, Route: SUBCUTANEOUS, Dose: 0, 2 UMOL IN 0.25 ML TRIOCTANOIN INTO LEFT HIND LEG AT ABOUT 40 D OF AGE FOLLOWED BY SECOND DOSE 6 D LATER (STUDY DURATI, Tumor Site: Type of Lesion: INJECTION SITE: SARCOMA): active; positive
carcinogen call (Species: RAT, Strain/Sex: SPRAGUE-DAWLEY/FEMALE, Route: SUBCUTANEOUS, Dose: 0, 2 UMOL IN 0.25 ML TRIOCTANOIN ONCE INTO LEFT HIND LEG AT ABOUT 40 D OF AGE (STUDY DURATION: 16 MO), Tumor Site: Type of Lesion: INJECTION SITE: SARCOMA): active; positive
carcinogen call (Species: RAT, Strain/Sex: STRAIN-CB/FEMALE, Route: SUBCUTANEOUS, Dose: 0.25 ML OF 1% SOLN IN DMSO ONCE, Tumor Site: Type of Lesion: INJECTION SITE: SPINDLE CELL SARCOMA): active; positive
carcinogen call (Species: RAT, Strain/Sex: WISTAR/FEMALE, Route: GAVAGE, Dose: 0.4 ML OF 0.5% SUNFLOWER SEED OIL SOLN 2/WK FOR 4.5 MO (TOTAL DOSE: 68 MG), Tumor Site: Type of Lesion: HEMATOPOIETIC SYSTEM (LEUKEMIA)): active; positive
carcinogen call (Species: RAT, Strain/Sex: WISTAR/FEMALE, Route: INJECTION, Dose: 0, 0.05 ML OF A 1% SOLUTION IN ACETONE INJECTED INTO SUBMANDIBULAR SALIVARY GLANDS AFTER EXCISION OF A SMALL PORTION OF, Tumor Site: Type of Lesion: SALIVARY GLAND: ADENOCARCINOMA): active; positive
carcinogen call (Species: RAT, Strain/Sex: WISTAR/FEMALE, Route: INTRADUCTAL, Dose: 0, 1 MG IN 0.05 ML OF SESAME OIL INJECTED INTO MAIN MAMMARY DUCT ON THE 10TH PUERPERAL DAY (STUDY DURATION: 20 WK), Tumor Site: Type of Lesion: MAMMARY GLAND: DUCTAL CARCINOMA): active; positive
carcinogen call (Species: RAT, Strain/Sex: WISTAR/FEMALE, Route: ORAL, Dose: 10 MG IN SESAME OIL 3 TIMES AT 14 D INTERVALS, Tumor Site: Type of Lesion: MAMMARY GLAND: ADENOMA, ADENOCARCINOMA): active; positive
carcinogen call (Species: RAT, Strain/Sex: WISTAR/FURTH/FEMALE, Route: OVARIAN IMPLANTATION OF CARCINOGEN-COATED SUTURE AT 7 WKS OF AGE, Dose: 200 UG IN SUTURE ONCE (STUDY DURATION: 1 YR), Tumor Site: Type of Lesion: OVARY: ADENOCARCINOMA, 77%): active; positive
carcinogen call (Species: RAT, Strain/Sex: WISTAR/MALE, Route: INJECTION, Dose: 0, 0.05 ML OF A 1% SOLUTION IN ACETONE INJECTED INTO SUBMANDIBULAR SALIVARY GLANDS AFTER EXCISION OF A SMALL PORTION OF, Tumor Site: Type of Lesion: SALIVARY GLAND: FIBROSARCOMA): active; positive
carcinogen call (Species: RAT, Strain/Sex: ZUCKER/FEMALE, LEAN, Route: ORAL (GAVAGE), Dose: 65 MG/KG ONCE AT 50 D OF AGE (STUDY DURATION: 139 D), Tumor Site: Type of Lesion: MAMMARY: TUMOR 32%, LATENCY 86 D): active; positive; lean rats had longer latent period and lower tumor incidence than obes
carcinogen call (Species: RAT, Strain/Sex: ZUCKER/FEMALE, OBESE, Route: ORAL (GAVAGE), Dose: 65 MG/KG ONCE AT 50 D OF AGE (STUDY DURATION: 139 D), Tumor Site: Type of Lesion: MAMMARY: TUMOR 68%, LATENCY 49 D): active; positive; obese rats had higher tumor incidence and shorter latent period than l
carcinogen call (Species: Rat, Strain/Sex: Fischer 344/Female, Route: Direct application to ovary, Dose: 100 ug in sesame oil, once, study duration 5 months): inactive; negative
carcinogen call (Species: SHREW, Strain/Sex: JAPANESE/FEMALE, Route: INTRAPERITONEAL, Dose: 0, 1.25, 2.5 MG 1/WK FOR 4 WK (STUDY DURATION: 50 WK), Dose: 0, 1.25, 2.5 MG 1/WK FOR 4 WK (STUDY DURATION: 50 WK), Tumor Site: Type of Lesion: HEMATOPOIETIC SYSTEM: LEUKEMIA): active; positive
carcinogen call (Species: SHREW, Strain/Sex: JAPANESE/FEMALE, Route: INTRAPERITONEAL, Dose: 0, 1.25, 2.5 MG 1/WK FOR 8 WK (STUDY DURATION: 50 WK), Dose: 0, 1.25, 2.5 MG 1/WK FOR 8 WK (STUDY DURATION: 50 WK), Tumor Site: Type of Lesion: HEMATOPOIETIC SYSTEM: LEUKEMIA): active; positive
carcinogen call (Species: SHREW, Strain/Sex: JAPANESE/FEMALE, Route: SUBCUTANEOUS, Dose: 0, 1 MG INTO RIGHT INGUINAL SUBCUTANEOUS TISSUE OVER THE MAMMARY GLAND ONCE (STUDY DURATION: 50 WK), Tumor Site: Type of Lesion: INJECTION SITE: SARCOMA): active; positive
